Measurements reported in patent US11433042B2, “Methods and compositions for treating metabolic disorders” (Joslin Diabetes Center, Inc., priority 2017, dated 2022).
Entries after “also recorded” stand apart in the source; their conditions may differ.

Columns and labels:
[1] = Cold tolerance assay (body core temperature at 4° C.); format: in vivo; settings: mice, 1 μg/kg retro-orbitally, cold challenge at 4° C., compared to vehicle and 12,13-epOME
Method: (§1) For cold tolerance assay, mice were injected retro-orbitally with 1 μg/kg body weight 12,13-diHOME (purchased from Cayman Chemical Company) in 0.1% w/v BSA in PBS or vehicle, then immediately placed in a cold room maintained at 4° C. and body core temperature was determined by rectal probe measurements. Mice injected retro-orbitally were also used to measure blood pressure and pulse with the tail cuff method (Hatteras Instruments).

[2] = Blood pressure and pulse by the tail cuff method; format: in vivo; settings: mice, acute pretreatment
Method: as §1

[3] = CLAMS study in cold conditions (4° C.); format: in vivo; settings: mice, 1 μg/kg intravenously, 1 h at cold (4° C.)
Method: For CLAMS studies, mice were injected intravenously with 1 μg/kg body weight 12,13-diHOME in 0.1% BSA PBS or vehicle and then monitored using the CLAMS system in cold conditions (4° C.) for 1 hour. Respiratory exchange ratio (R.E.R.) was calculated as the ratio of total carbon dioxide produced to total oxygen consumed.

[4] = Daily injections of 12,13-diHOME in diet-induced obese mice; format: in vivo
Method: (§2) For the experiments with daily injections of 12,13-diHOME, mice were fed with a high-fat diet containing 60 kcal % fat (Research Diets Stock no. D12492) for 16 weeks prior to treatment and during the course of the experiment. Mice were first injected intraperitoneally daily with 1 ug/kg body weight, 12,13-diHOME in 0.1% BSA w/v in PBS or vehicle and body for one week, then injected every day with 10 ug/kg body weight two weeks. For all experiments, serum was collected and triglycerides were measured using a standard enzymatic assay (ZenBiosystems). Non-esterified FA were also measured with a colorimetric assay (Wako Chemicals USA). High-density and low-density lipoprotein fractions were isolated and cholesterol was measured with a colorimetric assay (Abcam). All mice were allowed ad libitum access to water and food.

lipoprotein lipase (LPL) = test: mRNA expression by qPCR in tissue from 12,13-diHOME treated mice; format: in vivo; settings: diet-induced obese mice, 2 weeks at 10 μg/kg body weight
Method: as §2, with “food. Total RNA was extracted from tissue with Trizol and purified using a spin column kit (Zymo Research). RNA (500 ng-1 μg) was reverse transcribed with a high-capacity complementary DNA (cDNA) reverse transcription kit (Applied Biosystems). Real-time PCR was performed in mouse tissues starting with 10 ng of cDNA and forward and reverse oligonucleotide primers (300 nM each) in a final volume of 10 μl with SYBR green PCR Master Mix (Roche). Fluorescence was determined and analyzed in an ABI Prism 7900 sequence detection system (Applied Biosystems). […]” for “food.”

[5] = Oral lipid tolerance test; format: in vivo; settings: mice given an oral bolus of triglyceride, serum triglyceride
BAT [6] = test: In vivo radiolabeled organ distribution studies (oleate, glucose, triolein); settings: mice
Method: For in vivo fatty acid organ distribution studies, an oleate/^3H-oleate tracer mix was complexed to fatty acid-free BSA (Schlein, et al., Cell Metab. 23, 441-453 (2016)) and injected into the tail vein of wild type C57BL/6J mice 15 minutes after treatment with either vehicle, 1 μg/kg body weight 12,13-diHOME in 0.1% BSA PBS or NE. Similarly, radiolabeled organ distribution studies were performed in mice either by injection into the tail vein with 2-desoxy-D-[^14C]-glucose (PerkinElmer, 0.025 mCi per kg) in PBS or orally gavaged with 10 mL/kg olive oil (Sigma) containing [9,10-^3H(N)]-triolein (PerkinElmer, 0.3 mCi/kg). In all assays, organs were harvested after 15 minutes under terminal anesthesia and systemic perfusion with PBS-heparin (10 U/ml) via the left heart ventricle. Tissues were homogenized by using Solvable (PerkinElmer) and disintegrations per minute per organ data were calculated by scintillation counting.

BAT [7] = test: In vivo bioluminescent fatty acid uptake (FFA-SS-Luc) in UCP1cre+/− Rosa(stop)Luc+/− mice; settings: 1 ug/kg, compared to vehicle
Method: For in vivo bioluminescent fatty acid uptake experiments, UCP1cre^+/- mice (Stock no. 024670) were bred with Rosa(stop)Luc^+/+ (Stock no. 005125), both obtained from The Jackson Laboratory. Male offspring carrying the UCP1-cre allele were injected retro-orbitally with 1 ug/kg body weight 12,13-diHOME in 0.1% BSA PBS or vehicle, and all mice were co-injected with 2 μm FFA-SS-Luc ([…] Medical). Mice were anesthetized with isofluorane and imaged using the IVIS Spectrum CT using sequential 30 s exposures for 1 hour. Data was analyzed using Living Image Software and movies were assembled from individual images using ImageJ.

mature brown adipocytes = test: In vitro fatty acid uptake (FFA-SS-Luc) in brown adipocytes constitutively expressing luciferase; format: cell-based, mice; settings: 1 μM for 15 minutes, 10 μM FFA-SS-Luc
Method: Stromal vascular cells were isolated from interscapular brown adipose tissue dissected from TgLuc mice (Stock no. 008450) obtained from The Jackson Laboratory. Cells were immortalized and differentiated into adipocytes in vitro according to the WT-1 protocol (Tseng, Y. H. et al., Mol. Cell Biol. 24, 1918-1929 (2004)). After 1 hour of serum starvation, mature adipocytes were treated with 1 μM 12,13-diHOME or methyl acetate vehicle in 0.1% w/v BSA in PBS for 15 minutes. After this treatment, cells were incubated with 10 μm FFA-SS-Luc (Intrace Medical) and imaged using the IVIS Spectrum CT using sequential 30 s exposures for 1 hour. Data was analyzed using Living Image Software and movies were assembled from individual images using ImageJ. All cultures were confirmed to be Mycoplasma free.

[8] = diet-induced obese mice, daily for 2 weeks at 10 μg/kg body weight
[9] = obese mice, chronic treatment (i.e., one week)

Compound: CCCCCC(O)C(O)C/C=C\CCCCCCCC(=O)O (centres unmarked) [12,13-diHOME, 12,13-dihydroxy-9Z-octadecenoic acid]
- body temperature during cold challenge [1]: protected mice from the decrease in body temperature; also recorded: protected mice from cold challenge
- blood pressure [2]: no effect
- diastolic pressure [2]: very transient increase
- pulse [2]: no effect
- carbon dioxide production [3]: significant increases
- oxygen consumption [3]: significant increases
- respiratory exchange ratio [3]: decrease
- body weight [4, 8]: no effect
- circulating non-esterified FA [4, 8]: no effect
- circulating triglyceride levels [4, 8]: significantly decreased
- glucose tolerance [4, 8]: no effect
- body weight [4, 9]: without alteration
- circulating triglyceride [4, 9]: significant reduction
- expression of lipoprotein lipase (LPL) in BAT (lipoprotein lipase (LPL)): increased
- oral lipid tolerance [5]: improved
- FA uptake into BAT (BAT [6]; 1 μg/kg, radiolabeled oleate, similar level achieved by NE): significant increase
- glucose uptake into BAT (BAT [6]; radiolabeled glucose, similar level achieved by NE): significant increase
- BAT specific uptake of radiolabeled triglyceride (BAT [6]; triglyceride delivered by oral gavage): enhanced
- luminescent signal in BAT (brown adipocyte FA uptake) (BAT [7]): significantly increased
- FFA-SS-Luc uptake in vitro (mature brown adipocytes): significantly increased
